One series relates to S. aureus (ATCC 25923). Kind of series: Bacteria colony counting method. It is filed as cell-based, Staphylococcus aureus. The conditions noted are these: 100 µg peptide, 37 °C 2 h, plated, colonies counted after 12–18 h, n = 5, numbers only in Fig. 1c. On the procedure:
(§1) The antimicrobial activity assays were completed in a specialized laboratory. Red blood cells were collected from healthy adults at the 307 hospital laboratory. All participants gave informed consent to participate in the study.
(§2) Twenty microliters of the culture was diluted in LB (final volume 1 ml) and was evenly coated on an LB plate, inverted and incubated at 37 °C for 12–18 h and then the bacterial colonies were counted.

In series [1] the test system is S. aureus Amp^R (ATCC BAA-44). Nature of the series: Bacteria colony counting method. The conditions noted are these: 100 µg peptide, 37 °C 2 h, plated, colonies counted after 12–18 h, n = 5, numbers only in Fig. 1d. It is filed as cell-based, Staphylococcus aureus. On the procedure:
as §1, §2

In the next series the test system is S. Typhi (ATCC 19430). Kind of series: Bacteria colony counting method. It is filed as cell-based, Salmonella Typhi. The conditions noted are these: 100 µg peptide, 37 °C 2 h, plated, colonies counted after 12–18 h, n = 5, numbers only in Fig. 1e. On the procedure: as §1, §2
The next series has as its system E. coli BL21. Kind of series: Bacteria colony counting method. The class given is cell-based, Escherichia coli. The conditions noted are these: 100 µg peptide, 37 °C 2 h, plated, colonies counted after 12–18 h, n = 5, numbers only in Fig. 1a. On the procedure:
as §1, §2

A further series concerns E. coli BL21 Amp^R. Kind of series: Bacteria colony counting method. It is filed as cell-based, Escherichia coli. To be noted: 100 µg peptide, 37 °C 2 h, plated, colonies counted after 12–18 h, n = 5, numbers only in Fig. 1b. How it is done:
as §1, §2

For a further series, the system named is human red blood cells. Nature of the series: In vitro hemolysis assay. It is filed as cell-based. The conditions noted are these: 1 h 37 °C, even at a much higher concentration than the effective antibacterial dose (up to 3000 µg/ml). On the procedure: as §1
Blood samples from healthy donors were treated with heparin to minimize clotting. The blood cell was washed three times with normal saline, and 8 µl samples were diluted to 100 µl in normal saline. The diluted blood cell (100 µl) was incubated with 100 µl of pCM19 (3000 µg/ml) for 1 h at 37 °C; then the same volume diluted blood cell was incubated with 100 µl of pCM12 (100, 200, 500, 1000, 2000, 3000 µg/ml) for 1 h at 37 °C. Centrifugation was carried out at 1000 rpm for 5 min at 4 °C. Each treatment was performed in triplicate. The absorbance of each sample was measured at 570 nm using a microplate reader.

Consider “GGIGKTM [flexible peptide, a GIG array, the portion that is different between pCM19 and pCM12]”, for which the “antibacterial activity by colony counting” value (shortened to “antibacterial activity”) (in the series on S. aureus (ATCC 25923); in series [1]; with S. Typhi (ATCC 19430); in the series with E. coli BL21; in the series on E. coli BL21 Amp^R) was “almost completely lost the antibacterial activity” each time.
As for “GICRLMMRRGLE [RC, a random array of pCM12]”, the “antibacterial activity” value (in the series on S. aureus (ATCC 25923); in series [1]; with S. Typhi (ATCC 19430); in the series with E. coli BL21; with E. coli BL21 Amp^R) was “almost completely lost its bactericidal activity” in each case.
Turning to “CLRIGMRGREL [pCM11, pCM12 with the last amino acid residue removed]”, the “antibacterial activity” value (with S. aureus (ATCC 25923); in series [1]; in the series on S. Typhi (ATCC 19430); with E. coli BL21; in the series on E. coli BL21 Amp^R) was “lost its antibacterial activity” each time.
On to “CLRIGMRGRELMGGIGKTM [pCM19, 19 amino acids from positions 42 to 60 of hGlyrichin]”, for which the “antibacterial activity” value in the series with S. aureus (ATCC 25923) is “effectively inhibited the growth”; in series [1], “good inhibition and killing”; in the series on S. Typhi (ATCC 19430), “effectively inhibited the growth”; in the series with E. coli BL21, “effectively inhibited the growth”; in the series with E. coli BL21 Amp^R it was “good inhibition and killing”. Moreover, in the series on human red blood cells, the “damage to red cell membranes (hemolysis), in words” value is given as “caused no damage to the red cell membranes”.
As to “CLRIGMRGRELM [pCM12, 12 amino acids of pCM19 from which 7 amino acids at the carboxyl terminal were removed]”, the “antibacterial activity” value in the series on S. aureus (ATCC 25923) was “effectively inhibited the growth”; in series [1], “good inhibition and killing”; with S. Typhi (ATCC 19430) it was “effectively inhibited the growth”; in the series with E. coli BL21, “effectively inhibited the growth”; in the series on E. coli BL21 Amp^R it was “good inhibition and killing”. For the same substance, the “damage to red cell membranes (hemolysis), in words” value with human red blood cells is given as “caused no damage to the red cell membranes”.

For the origin of these results see article PMC4993737, “Antibacterial activity identification of pCM19 and pCM12 derived from hGlyrichin” (SpringerPlus, 2016).
